Values of other authors, collected in patent US6790445B1, “Preservatives for vaccines” (Merck & Co., Inc., priority 1997, dated 2004).

Experiments:
[1] = system: rats
[2] = system: rabbits
[3] = in vivo
[4] = system: mice; settings: intraperitoneally
[5] = system: population; settings: in vivo
[6] = at 4° C.

With `OCCOc1ccccc1` [2-Phenoxyethanol, 2-phenoxyethanol] as the molecule, how does the “acute oral LD50” value [1] read?
The value was 1.26 to 2.33 mL/kg.

What about the “acute dermal LD50” value [2] of the same molecule?
The value was 2.0 mL/kg.

For `OCc1ccccc1` [Benzyl Alcohol, benzyl alcohol], which probable lethal dose [3] is on record?
Its probable lethal dose is 500 to 5000 mg/kg.

For `COC(=O)c1ccc(O)cc1` [Methyl Paraben, methyl paraben], which LD50 [4] is on record?
The LD50 was 1000 mg/kg.

Which “allergic reaction, share of the population” value [5] does the source give for `C[CH2][Hg][S]c1ccccc1C(=O)[O-].[Na+]` [Thimerosal] here?
The value was “about sixteen”.

With `N[C@@H](Cc1c[nH]cn1)C(=O)O` [histidine, L-histidine] as the molecule, how does the pKa [6] read?
The pKa was 7.
